Legend:
Assay type in all cases: in vivo
[1] = tested on: ragweed (common ragweed, Ambrosia elatior); assay: Test A postemergence, ragweed; details: 0 to 100 scale
Description: (§1) Seeds of plant species selected from bamyardgrass (Echinochloa crus-galli), kochia (Kochia scoparia), ragweed (common ragweed, Ambrosia elatior), ryegrass, Italian (Italian ryegrass, Lolium multiflorum), foxtail, giant (giant foxtail, Setaria faberii), pigweed (Amaranthus retroflexus), crabgrass, large (large crabgrass, Digitaria sanguinalis), momingglory (Ipomoea spp.), velvetleaf (Abutilon theophrasti), wheat (Triticum aestivum), and corn (Zea mays) were planted into a blend of loam soil and sand and treated preemergence with a directed soil spray using test chemicals formulated in a non-phytotoxic solvent mixture which included a surfactant. At the same time, plants selected from these crop and weed species and also blackgrass (Alopecurus myosuroides), and galium (catchweed bedstraw, Galium aparine) were planted in pots containing the same blend of loam soil and sand and treated with postemergence applications of test chemicals formulated in the same manner. Plants ranged in height from 2 to 10 cm and were in the one- to two-leaf stage for the postemergence treatment. Treated plants and untreated controls were maintained in a greenhouse for approximately 10 days, after which time all treated plants were compared to untreated controls and visually evaluated for injury. Plant response ratings, summarized in Table A, are based on a 0 to 100 scale where 0 is no effect and 100 is complete control. A dash (-) response means no test result.

[2] = tested on: barnyardgrass (Echinochloa crus-galli); assay: Test B flooded paddy test, barnyardgrass; details: Flood, 250 g ai/ha; scale of 0 to 100
Protocol: (§2) Plant species in the flooded paddy test selected from rice (Oryza sativa), sedge, umbrella (small-flower umbrella sedge, Cyperus difformis), ducksalad (Heteranthera limosa), and barnyardgrass (Echinochloa crus-galli) were grown to the 2-leaf stage for testing. At time of treatment, test pots were flooded to 3 cm above the soil surface, treated by application of test compounds directly to the paddy water, and then maintained at that water depth for the duration of the test. Treated plants and controls were maintained in a greenhouse for 13 to 15 days, after which time all species were compared to controls and visually evaluated. Plant response ratings, summarized in Table B, are based on a scale of 0 to 100 where 0 is no effect and 100 is complete control. A dash (-) response means no test result.

[3] = tested on: pigweed (Amaranthus retroflexus); assay: Test A postemergence, pigweed; details: 0 to 100 scale
Description: as §1

[4] = tested on: pigweed (Amaranthus retroflexus); assay: Test A preemergence, pigweed; details: 0 to 100 scale
Description: as §1

[5] = tested on: sedge, umbrella (small-flower umbrella sedge, Cyperus difformis); assay: Test B flooded paddy test, sedge, umbrella; details: Flood, 250 g ai/ha; scale of 0 to 100
Protocol: as §2

[6] = tested on: barnyardgrass (Echinochloa crus-galli); assay: Test A preemergence, barnyardgrass; details: 0 to 100 scale
Description: as §1

[7] = tested on: blackgrass (Alopecurus myosuroides); assay: Test A postemergence, blackgrass; details: 0 to 100 scale
Description: as §1

[8] = tested on: barnyardgrass (Echinochloa crus-galli); assay: Test A postemergence, barnyardgrass; details: 0 to 100 scale
Description: as §1

kochia (Kochia scoparia) [9] = assay: Test A postemergence, kochia; details: 0 to 100 scale
Description: as §1

[10] = tested on: foxtail, giant (giant foxtail, Setaria faberii); assay: Test A preemergence, foxtail, giant; details: 0 to 100 scale
Description: as §1

[11] = tested on: foxtail, giant (giant foxtail, Setaria faberii); assay: Test A postemergence, foxtail, giant; details: 0 to 100 scale
Description: as §1

[12] = tested on: ducksalad (Heteranthera limosa); assay: Test B flooded paddy test, ducksalad; details: Flood, 250 g ai/ha; scale of 0 to 100
Protocol: as §2

[13] = tested on: ryegrass, Italian (Italian ryegrass, Lolium multiflorum); assay: Test A preemergence, ryegrass, Italian; details: 0 to 100 scale
Description: as §1

rice (Oryza sativa) = assay: Test B flooded paddy test, rice; details: Flood, 250 g ai/ha; scale of 0 to 100
Protocol: as §2

[14] = tested on: wheat (Triticum aestivum); assay: Test A postemergence, wheat; details: 0 to 100 scale
Description: as §1

kochia (Kochia scoparia) [15] = assay: Test A preemergence, kochia; details: 0 to 100 scale
Description: as §1

[16] = tested on: ryegrass, Italian (Italian ryegrass, Lolium multiflorum); assay: Test A postemergence, ryegrass, Italian; details: 0 to 100 scale
Description: as §1

[17] = tested on: galium (catchweed bedstraw, Galium aparine); assay: Test A postemergence, galium; details: 0 to 100 scale
Description: as §1

corn (Zea mays) = assay: Test A postemergence, corn; details: 0 to 100 scale
Description: as §1

[18] = tested on: ragweed (common ragweed, Ambrosia elatior); assay: Test A preemergence, ragweed; details: 0 to 100 scale
Description: as §1

[O-][n+]1cccc(Oc2ncc(F)cn2)c1-n1cc(Cl)cn1 [Compound 9]
50: Plant response rating, Pigweed ([3]; 125 g ai/ha) | Plant response rating, Kochia (kochia (Kochia scoparia) [9]; 125 g ai/ha)
10: Plant response rating, Ragweed ([1]; 31 g ai/ha) | Plant response rating, Kochia (kochia (Kochia scoparia) [9]; 31 g ai/ha) | Plant response rating, Galium ([17]; 31 g ai/ha)
0: Plant response rating, Barnyardgrass [2] | Plant response rating, Pigweed ([4]; 31 g ai/ha) | Plant response rating, Sedge, Umbrella [5] | Plant response rating, Barnyardgrass ([6]; 31 g ai/ha) | Plant response rating, Barnyardgrass ([6]; 125 g ai/ha) | Plant response rating, Blackgrass ([7]; 31 g ai/ha) | Plant response rating, Blackgrass ([7]; 125 g ai/ha) | Plant response rating, Barnyardgrass ([8]; 31 g ai/ha) | Plant response rating, Barnyardgrass ([8]; 125 g ai/ha) | Plant response rating, Foxtail, Giant ([10]; 31 g ai/ha) | Plant response rating, Foxtail, Giant ([10]; 125 g ai/ha) | Plant response rating, Foxtail, Giant ([11]; 31 g ai/ha) | Plant response rating, Foxtail, Giant ([11]; 125 g ai/ha) | Plant response rating, Ducksalad [12] | Plant response rating, Ryegrass, Italian ([13]; 31 g ai/ha) | Plant response rating, Ryegrass, Italian ([13]; 125 g ai/ha) | Plant response rating, Rice (rice (Oryza sativa)) | Plant response rating, Wheat ([14]; 31 g ai/ha) | Plant response rating, Wheat ([14]; 125 g ai/ha) | Plant response rating, Kochia (kochia (Kochia scoparia) [15]; 31 g ai/ha) | Plant response rating, Kochia (kochia (Kochia scoparia) [15]; 125 g ai/ha) | Plant response rating, Ryegrass, Italian ([16]; 31 g ai/ha) | Plant response rating, Ryegrass, Italian ([16]; 125 g ai/ha) | Plant response rating, Corn (corn (Zea mays); 31 g ai/ha) | Plant response rating, Corn (corn (Zea mays); 125 g ai/ha) | Plant response rating, Ragweed ([18]; 31 g ai/ha) | Plant response rating, Ragweed ([18]; 125 g ai/ha)
30: Plant response rating, Ragweed ([1]; 125 g ai/ha) | Plant response rating, Pigweed ([3]; 31 g ai/ha) | Plant response rating, Galium ([17]; 125 g ai/ha)
20: Plant response rating, Pigweed ([4]; 125 g ai/ha)

Clc1ccc(-c2cccnc2Oc2ncc(Cl)cn2)nc1 [Compound 12, 5-chloro-2-[(5-chloro[2,3′-bipyridin]-2′-yl)oxy]pyrimidine]
30: Plant response rating, Pigweed ([3]; 125 g ai/ha) | Plant response rating, Sedge, Umbrella [5] | Plant response rating, Barnyardgrass ([8]; 125 g ai/ha) | Plant response rating, Ducksalad [12]
0: Plant response rating, Ragweed ([1]; 31 g ai/ha) | Plant response rating, Barnyardgrass [2] | Plant response rating, Pigweed ([4]; 31 g ai/ha) | Plant response rating, Barnyardgrass ([6]; 31 g ai/ha) | Plant response rating, Barnyardgrass ([6]; 125 g ai/ha) | Plant response rating, Blackgrass ([7]; 31 g ai/ha) | Plant response rating, Blackgrass ([7]; 125 g ai/ha) | Plant response rating, Barnyardgrass ([8]; 31 g ai/ha) | Plant response rating, Kochia (kochia (Kochia scoparia) [9]; 31 g ai/ha) | Plant response rating, Foxtail, Giant ([10]; 31 g ai/ha) | Plant response rating, Foxtail, Giant ([10]; 125 g ai/ha) | Plant response rating, Foxtail, Giant ([11]; 31 g ai/ha) | Plant response rating, Foxtail, Giant ([11]; 125 g ai/ha) | Plant response rating, Ryegrass, Italian ([13]; 31 g ai/ha) | Plant response rating, Ryegrass, Italian ([13]; 125 g ai/ha) | Plant response rating, Wheat ([14]; 31 g ai/ha) | Plant response rating, Wheat ([14]; 125 g ai/ha) | Plant response rating, Kochia (kochia (Kochia scoparia) [15]; 31 g ai/ha) | Plant response rating, Ryegrass, Italian ([16]; 31 g ai/ha) | Plant response rating, Ryegrass, Italian ([16]; 125 g ai/ha) | Plant response rating, Corn (corn (Zea mays); 31 g ai/ha) | Plant response rating, Ragweed ([18]; 31 g ai/ha) | Plant response rating, Ragweed ([18]; 125 g ai/ha)
40: Plant response rating, Kochia (kochia (Kochia scoparia) [9]; 125 g ai/ha) | Plant response rating, Kochia (kochia (Kochia scoparia) [15]; 125 g ai/ha)
10: Plant response rating, Ragweed ([1]; 125 g ai/ha) | Plant response rating, Pigweed ([3]; 31 g ai/ha) | Plant response rating, Galium ([17]; 31 g ai/ha) | Plant response rating, Galium ([17]; 125 g ai/ha) | Plant response rating, Corn (corn (Zea mays); 125 g ai/ha)
20: Plant response rating, Rice (rice (Oryza sativa))
60: Plant response rating, Pigweed ([4]; 125 g ai/ha)

Cc1cnc(-n2ccc(C(F)(F)F)n2)c(Oc2ncc(Cl)cn2)c1 [Compound 13]
0: Plant response rating, Ragweed ([1]; 31 g ai/ha) | Plant response rating, Ragweed ([1]; 125 g ai/ha) | Plant response rating, Barnyardgrass [2] | Plant response rating, Pigweed ([3]; 31 g ai/ha) | Plant response rating, Pigweed ([3]; 125 g ai/ha) | Plant response rating, Pigweed ([4]; 31 g ai/ha) | Plant response rating, Pigweed ([4]; 125 g ai/ha) | Plant response rating, Sedge, Umbrella [5] | Plant response rating, Barnyardgrass ([6]; 31 g ai/ha) | Plant response rating, Barnyardgrass ([6]; 125 g ai/ha) | Plant response rating, Blackgrass ([7]; 31 g ai/ha) | Plant response rating, Blackgrass ([7]; 125 g ai/ha) | Plant response rating, Barnyardgrass ([8]; 31 g ai/ha) | Plant response rating, Barnyardgrass ([8]; 125 g ai/ha) | Plant response rating, Kochia (kochia (Kochia scoparia) [9]; 31 g ai/ha) | Plant response rating, Kochia (kochia (Kochia scoparia) [9]; 125 g ai/ha) | Plant response rating, Foxtail, Giant ([10]; 31 g ai/ha) | Plant response rating, Foxtail, Giant ([10]; 125 g ai/ha) | Plant response rating, Foxtail, Giant ([11]; 31 g ai/ha) | Plant response rating, Foxtail, Giant ([11]; 125 g ai/ha) | Plant response rating, Ducksalad [12] | Plant response rating, Ryegrass, Italian ([13]; 31 g ai/ha) | Plant response rating, Ryegrass, Italian ([13]; 125 g ai/ha) | Plant response rating, Rice (rice (Oryza sativa)) | Plant response rating, Wheat ([14]; 31 g ai/ha) | Plant response rating, Wheat ([14]; 125 g ai/ha) | Plant response rating, Kochia (kochia (Kochia scoparia) [15]; 31 g ai/ha) | Plant response rating, Kochia (kochia (Kochia scoparia) [15]; 125 g ai/ha) | Plant response rating, Ryegrass, Italian ([16]; 31 g ai/ha) | Plant response rating, Ryegrass, Italian ([16]; 125 g ai/ha) | Plant response rating, Galium ([17]; 31 g ai/ha) | Plant response rating, Galium ([17]; 125 g ai/ha) | Plant response rating, Corn (corn (Zea mays); 31 g ai/ha) | Plant response rating, Corn (corn (Zea mays); 125 g ai/ha) | Plant response rating, Ragweed ([18]; 31 g ai/ha) | Plant response rating, Ragweed ([18]; 125 g ai/ha)

Reference: patent publication US11006631B2, “Substituted pyrimidinyloxy pyridine derivatives as herbicides” (FMC Corporation, priority 2015, dated 2021)
